Experimental data from article PMC4584933, “Establishing the pig as a large animal model for vaccine development against human cancer” (Frontiers in Genetics, 2015).

Assays:
[1] = tested on: PBMCs; assay: In vitro peptide stimulation of porcine PBMCs, IFN-γ release assay (ELISA); type: cell-based, pig; set-up: key to T cell response: “x” indicates that a response was found to this given peptide at least once; settings: PBMCs of immunized pigs, 2 × 10^5/well, 5 μg/ml peptide, 67.5–70.0 h, IFN-γ ELISA; response = 2-fold increase vs day -2 and at least 25 pg/ml IFN-γ, found at least once; SLA restriction not included
[2] = tested on: SLA-1*04:01; assay: Peptide-MHC class I complex stability, scintillation proximity assay (SPA); set-up: species or system pig; settings: biotinylated recombinant SLA heavy chain, 125I-β2m, excess unlabeled β2m, read every 40 min, number only if t1/2 ≥ 0.5 h, '-' = not stably binding
Summary of the method: (§1)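 Biotinylated recombinant heavy chains captured on streptavidin scintillation plates with 125I-β2m and peptide; signal read every 40 min under dissociating conditions with excess unlabeled β2m. Signal duration gives complex half-life; ≥ 0.5 h counted as stable binder.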

[3] = tested on: SLA-1*07:02; assay: as above; set-up: species or system pig; settings: biotinylated recombinant SLA heavy chain, 125I-β2m, excess unlabeled β2m, read every 40 min, number only if t1/2 ≥ 0.5 h, '-' = not stably binding
Summary of the method: as §1

[4] = tested on: SLA-2*05:02; assay: as above; set-up: species or system pig; settings: biotinylated recombinant SLA heavy chain, 125I-β2m, excess unlabeled β2m, read every 40 min, number only if t1/2 ≥ 0.5 h, '-' = not stably binding
Summary of the method: as §1

[5] = Dissolving of 20mer peptides for immunization; type: physicochemical; settings: to 5 mM in milliQ water, N-methyl-2-pyrrolidone or 3% ammonia water
Procedure: Fifty-nine 20mer peptides with 10mer overlap covering the entire IDO and RhoC amino acid (aa) sequence were purchased from Genscript (New Jersey, U.S) or Pepscan Presto BV (Lelystad, the Netherlands). […] Peptides were dissolved to a concentration of 5 mM in milliQ water, N-methyl-2-pyrrolidone or 3% ammonia water in accordance with the supplier's recommendations, for further details see Supplementary Table 1.

[6] = tested on: SLA-3*04:01; assay: Peptide-MHC class I complex stability, scintillation proximity assay (SPA); set-up: species or system pig; settings: biotinylated recombinant SLA heavy chain, 125I-β2m, excess unlabeled β2m, read every 40 min, number only if t1/2 ≥ 0.5 h, '-' = not stably binding
Summary of the method: as §1

[7] = tested on: SLA-2*04:01; assay: as above; set-up: species or system pig; settings: biotinylated recombinant SLA heavy chain, 125I-β2m, excess unlabeled β2m, read every 40 min, number only if t1/2 ≥ 0.5 h, '-' = not stably binding
Summary of the method: as §1

Row | Substance | T cell response [1] | Binder (t1/2 ≥ 0.5 h): half-life of peptide-SLA-1*04:01 complex [2] | Binder (t1/2 ≥ 0.5 h): half-life of peptide-SLA-1*07:02 complex [3] | Binder (t1/2 ≥ 0.5 h): half-life of peptide-SLA-2*05:02 complex [4] | dissolving of peptide [5] | Binder (t1/2 ≥ 0.5 h): half-life of peptide-SLA-3*04:01 complex [6] | Binder (t1/2 ≥ 0.5 h): half-life of peptide-SLA-2*04:01 complex [7]
1 | ALWDTAGQEDY [RhoC1, porcine RhoC-derived 9-11mer peptide] | x | 3.9 h | 0.9 h | – | – | – | –
2 | CVQAMVSLRNY [IDO9, porcine IDO-derived 9-11mer peptide] | – | - (t1/2 (hours) is listed for each of the stably binding peptides (t1/2 ≥ 0.5 h)) | 3.1 h | – | – | – | –
3 | EIAAASAIKVI [IDO16, porcine IDO-derived 9-11mer peptide] | x | 0.8 h | – | 12.5 h | – | – | –
4 | IDO330−350: 20mer peptide of the overlapping IDO/RhoC library, omitted due to dissolving problems (EAYDACVKALVSLRSYHLQIV; UniProt P14902 330-350, looked up, fragment) | – | – | – | – | dissolving problems | – | –
5 | KVLPRNIAIPY [IDO63, porcine IDO-derived 9-11mer peptide] | x | - (t1/2 (hours) is listed for each of the stably binding peptides (t1/2 ≥ 0.5 h)) | 0.7 h | – | – | - (t1/2 (hours) is listed for each of the stably binding peptides (t1/2 ≥ 0.5 h)) | –
6 | MANRISAFGY [RhoC39, porcine RhoC-derived 9-11mer peptide] | x | 0.7 h | 1.5 h | – | – | – | 1.4 h
7 | MTYKNMDILF [IDO81, porcine IDO-derived 9-11mer peptide] | – | - (t1/2 (hours) is listed for each of the stably binding peptides (t1/2 ≥ 0.5 h)) | - (t1/2 (hours) is listed for each of the stably binding peptides (t1/2 ≥ 0.5 h)) | - (t1/2 (hours) is listed for each of the stably binding peptides (t1/2 ≥ 0.5 h)) | – | - (t1/2 (hours) is listed for each of the stably binding peptides (t1/2 ≥ 0.5 h)) | 4.2 h
8 | RDMANRISAF [RhoC42, porcine RhoC-derived 9-11mer peptide] | – | - (t1/2 (hours) is listed for each of the stably binding peptides (t1/2 ≥ 0.5 h)) | – | – | – | - (t1/2 (hours) is listed for each of the stably binding peptides (t1/2 ≥ 0.5 h)) | - (t1/2 (hours) is listed for each of the stably binding peptides (t1/2 ≥ 0.5 h))
9 | RLAHLVLGY [IDO104, porcine IDO-derived 9-11mer peptide] | – | - (t1/2 (hours) is listed for each of the stably binding peptides (t1/2 ≥ 0.5 h)) | 0.5 h | – | – | – | - (t1/2 (hours) is listed for each of the stably binding peptides (t1/2 ≥ 0.5 h))
10 | RTYMPPAHRNF [IDO113, porcine IDO-derived 9-11mer peptide] | – | 1.0 h | – | - (t1/2 (hours) is listed for each of the stably binding peptides (t1/2 ≥ 0.5 h)) | – | - (t1/2 (hours) is listed for each of the stably binding peptides (t1/2 ≥ 0.5 h)) | - (t1/2 (hours) is listed for each of the stably binding peptides (t1/2 ≥ 0.5 h))
11 | SLHKALEVF [IDO117, porcine IDO-derived 9-11mer peptide] | – | - (t1/2 (hours) is listed for each of the stably binding peptides (t1/2 ≥ 0.5 h)) | - (t1/2 (hours) is listed for each of the stably binding peptides (t1/2 ≥ 0.5 h)) | – | – | – | –
12 | VLGYITMAY [IDO125, porcine IDO-derived 9-11mer peptide] | – | - (t1/2 (hours) is listed for each of the stably binding peptides (t1/2 ≥ 0.5 h)) | 1.0 h | – | – | – | 0.8 h
13 | VLPRNIAIPY [IDO126, porcine IDO-derived 9-11mer peptide] | x | - (t1/2 (hours) is listed for each of the stably binding peptides (t1/2 ≥ 0.5 h)) | 0.7 h | – | – | – | –
14 | YPDTDVILMCF [RhoC59, porcine RhoC-derived 9-11mer peptide] | – | 1.0 h | 0.8 h | – | – | – | –
